# Where two headings read alike, the source gives them in different places.
# Tested on: type 2 herpes simplex strain 3345
# Assay: In vitro bioassay: inhibition of virus replication in infected African green monkey kidney cells
# Type: cell-based, type 2 herpes simplex virus
# Conditions: for inhibition at 1000 µg/mL: frusemide 1 mg/ml, African green monkey kidney cells; for Inhibition of hsv2, Effect of bendrofluazide: 0.25 mg bendrofluazide/ml liquid medium
# Source text: In vitro bioassays were undertaken to follow the anti-viral activity of a diuretic compound. […] Inhibition of virus replication was scored on the scale: […]
structure (smiles),measurement,setting,value
CCCCNC(=O)NS(=O)(=O)c1ccc(C)cc1 [tolbutamide],"Inhibition of hsv2, effect of tolbutamide","High multiplicity of infection, 0.5 mg tolbutamide/ml liquid medium",+ (20% inhibition)
same,"Inhibition of hsv2, effect of tolbutamide","High multiplicity of infection, 5 mg tolbutamide/ml liquid medium",++ (40% inhibition)
same,"Inhibition of hsv2, effect of tolbutamide","High multiplicity of infection, 50 mg tolbutamide/ml liquid medium",+++ (60% inhibition)
same,"Inhibition of hsv2, effect of tolbutamide","Low multiplicity of infection, 0.5 mg tolbutamide/ml liquid medium",++ (40% inhibition)
same,"Inhibition of hsv2, effect of tolbutamide","Low multiplicity of infection, 5 mg tolbutamide/ml liquid medium",+++ (60% inhibition)
same,"Inhibition of hsv2, effect of tolbutamide","Low multiplicity of infection, 50 mg tolbutamide/ml liquid medium",+++++ (100% inhibition)
same,"Inhibition of hsv2, effect of tolbutamide","Medium multiplicity of infection, 0.5 mg tolbutamide/ml liquid medium",+ (20% inhibition)
same,"Inhibition of hsv2, effect of tolbutamide","Medium multiplicity of infection, 5 mg tolbutamide/ml liquid medium",+++ (60% inhibition)
same,"Inhibition of hsv2, effect of tolbutamide","Medium multiplicity of infection, 50 mg tolbutamide/ml liquid medium",++++ (80% inhibition)
"NS(=O)(=O)c1cc(C(=O)O)c(NCc2ccco2)cc1Cl [frusemide, 4-chloro-N-furfuryl-5-sulfamoylanthranilic acid]",inhibition at 1000 µg/mL,"Human alphaherpesvirus 2, read-out: Inhibition of hsv2, Effect of frusemide, High multiplicity of infection",0%
same,inhibition at 1000 µg/mL,"Human alphaherpesvirus 2, read-out: Inhibition of hsv2, Effect of frusemide, Low multiplicity of infection",40%
same,inhibition at 1000 µg/mL,"Human alphaherpesvirus 2, read-out: Inhibition of hsv2, Effect of frusemide, Medium multiplicity of infection",40%
NS(=O)(=O)c1cc2c(cc1C(F)(F)F)NC(Cc1ccccc1)NS2(=O)=O (stereo not drawn) [bendrofluazide],"Inhibition of hsv2, Effect of bendrofluazide",High multiplicity of infection,++ (40% inhibition)
same,"Inhibition of hsv2, Effect of bendrofluazide",Low multiplicity of infection,++++ (80% inhibition)
same,"Inhibition of hsv2, Effect of bendrofluazide",Medium multiplicity of infection,++++ (80% inhibition)

# Reference: US20060122174A1, “Antiviral treatment” (Henderson Morley Research & Development Limited, priority 2001, published 2006)
